In US20150038707A1, “PROCESS FOR MAKING CGRP RECEPTOR ANTAGONISTS” (Merck Sharp & Dohme Corp., priority 2012, published 2015):

What was measured:
[1] = test system: Ae. aegypti Houston strain (pyrethroid susceptible); assay: Toxicity assay on treated netting (Example 7), Houston strain; format: in vivo
Experimental: (§1) Several compounds were tested to determine their toxic effect on Ae. aegypti mosquitoes. Three mosquito strains were tested—Houston which is pyrethroid susceptible, That which is pyrethroid tolerant and Isla Mujer which is metabolically pyrethroid resistant.
(§2) The toxicity assay involved a single chamber to which treated netting was added. Twenty (20) mosquitoes were transferred to the chamber. After 1 hour, the number of knocked down mosquitoes was recorded and all mosquitoes were transferred to holding cartoons. The mosquitoes were given a 10% sucrose-soaked cotton ball and returned to the insectary. Mortaility was measured after 24 hours. A control assay using acetone-treated netting was used. Six replicates were performed at each treatment concentration.

[2] = test system: Ae. aegypti Thai strain (pyrethroid tolerant); assay: Toxicity assay on treated netting (Example 7), Thai strain; format: in vivo
Experimental: as §1, §2

[3] = test system: Ae. aegypti Isla mujeres strain (metabolically pyrethroid resistant); assay: Toxicity assay on treated netting (Example 7), Isla mujeres strain; format: in vivo
Experimental: as §1, §2

[4] = test system: KDR Resisant An. Gambiae; assay: Bottle toxicity assay (Example 8), knockdown resistant mosquitoes; format: in vivo, Anopheles gambiae; settings: for KDR Resisant An. Gambiae (% dead (SE)): Strain Tested F123; for effectiveness against knockdown resistant strains: summary of Table 3
Experimental: (§3) Several compounds were tested to determine their toxic effect on knockdown resistant Anopheles gambiae mosquitoes and susceptible mosquitoes. Acetone and different amounts of pesticides were added to 250 ml bottles. In one bottle, only acetone was added as a control. The bottles were rotated in all directions while uncapped until all acetone was evaporated and the insecticide was coated onto the inside surfaces of the bottle. A number of knockdown resistant Anopheles gambiae mosquitoes were added to the bottle. The number of dead mosquitoes was recorded at 1 hour and 24 hours.

[5] = test system: Susceptible An. Gambiae; assay: Bottle toxicity assay (Example 8), susceptible mosquitoes; format: in vivo, Anopheles gambiae; settings: Strain Tested F123
Experimental: as §3

[6] = Dose 0.025 nm/cm^2, Time 1 hour
[7] = Dose 0.025 nm/cm^2, Time 24 hours
[8] = Dose 0.25 nm/cm^2, Time 24 hours
[9] = Dose 2.5 nm/cm^2, Time 24 hours
[10] = Dose 0.25 μg/bottle, Time 1 hour
[11] = Dose 0.25 μg/bottle, Time 24 hours
[12] = Dose 2.5 μg/bottle, Time 1 hour
[13] = Dose 2.5 μg/bottle, Time 24 hours
[14] = Dose 0.0025 μg/bottle, Time 1 hour
[15] = Dose 0.0025 μg/bottle, Time 24 hours
[16] = Dose 0.025 μg/bottle, Time 1 hour
[17] = Dose 0.025 μg/bottle, Time 24 hours

Row | Structure (SMILES) | Houston (% dead (SE)) [1, 6] [%] | Houston (% dead (SE)) [1, 7] [%] | Houston (% dead (SE)) ([1]; Dose 0.25 nm/cm^2, Time 1 hour) [%] | Houston (% dead (SE)) [1, 8] [%] | Houston (% dead (SE)) ([1]; Dose 2.5 nm/cm^2, Time 1 hour) [%] | Houston (% dead (SE)) [1, 9] [%] | Thai (% dead (SE)) [2, 6] [%] | Thai (% dead (SE)) [2, 7] [%] | Thai (% dead (SE)) ([2]; Dose 0.25 nm/cm^2, Time 1 hour) [%] | Thai (% dead (SE)) [2, 8] [%] | Thai (% dead (SE)) ([2]; Dose 2.5 nm/cm^2, Time 1 hour) [%] | Thai (% dead (SE)) [2, 9] [%] | Isla mujeres (% dead (SE)) [3, 6] [%] | Isla mujeres (% dead (SE)) [3, 7] [%] | Isla mujeres (% dead (SE)) ([3]; Dose 0.25 nm/cm^2, Time 1 hour) [%] | Isla mujeres (% dead (SE)) [3, 8] [%] | Isla mujeres (% dead (SE)) ([3]; Dose 2.5 nm/cm^2, Time 1 hour) [%] | Isla mujeres (% dead (SE)) [3, 9] [%] | KDR Resisant An. Gambiae (% dead (SE)) [4, 10] [%] | KDR Resisant An. Gambiae (% dead (SE)) [4, 11] [%] | further results
1 | CC1(C)[C@H](C=C(Cl)Cl)[C@H]1C(=O)OCc1c(F)c(F)cc(F)c1F [Transfluthrin, transfluthrin, reference compound] | 100 | 100 | 100 | 100 | 100 | 100 | 100 | 91.7 | 100 | 100 | 100 | 100 | 100 | 1.6 | 100 | 100 | 100 | 100 | – | – | –
2 | CC1(C)C(C=C(Cl)Cl)C1C(=O)OC(C#N)c1cccc(Oc2ccccc2)c1 (stereo not drawn) [Alpha-cypermethrin, alpha cypermethrin, reference compound] | – | – | 100 | 100 | 100 | 100 | – | – | 100 | 83.9 | 100 | 100 | – | – | 96.66 | 41.06 | 100 | 100 | – | – | –
3 | CC1(C)C(C=C(Cl)Cl)C1C(=O)OCc1cccc(Oc2ccccc2)c1 (stereo not shown) [Permethrin, permethrin, reference compound] | – | – | 100 | 100 | 100 | 100 | – | – | – | – | – | – | – | – | 87.49 | 14.68 | 100 | 100 | 0 | 24 | KDR Resisant An. Gambiae (% dead (SE)) [4, 12]: 25%; KDR Resisant An. Gambiae (% dead (SE)) [4, 13]: 78%; effectiveness against knockdown resistant strains [4]: less effective; Susceptible An. Gambiae (% dead (SE)) [5, 10]: 100%; Susceptible An. Gambiae (% dead (SE)) [5, 11]: 100%; Susceptible An. Gambiae (% dead (SE)) [5, 12]: 100%; Susceptible An. Gambiae (% dead (SE)) [5, 13]: 100%
4 | C/C=C/C1C(C(=O)OCc2c(F)c(F)c(COC)c(F)c2F)C1(C)C (stereo in doubt) [Metafluthrin, metafluthrin, reference compound] | 100 | 100 | 100 | 100 | 100 | 100 | 100 | 89.2 | 100 | 100 | 100 | 100 | 56.3 | 21.89 | 100 | 77.27 | 100 | 100 | 100 | 100 | KDR Resisant An. Gambiae (% dead (SE)) [4, 14]: 10%; KDR Resisant An. Gambiae (% dead (SE)) [4, 15]: 25%; KDR Resisant An. Gambiae (% dead (SE)) [4, 16]: 47%; KDR Resisant An. Gambiae (% dead (SE)) [4, 17]: 86%; KDR Resisant An. Gambiae (% dead (SE)) [4, 12]: 100%; KDR Resisant An. Gambiae (% dead (SE)) [4, 13]: 100%; effectiveness against knockdown resistant strains [4]: less effective; Susceptible An. Gambiae (% dead (SE)) [5, 14]: 100%; Susceptible An. Gambiae (% dead (SE)) [5, 15]: 86%; Susceptible An. Gambiae (% dead (SE)) [5, 16]: 100%; Susceptible An. Gambiae (% dead (SE)) [5, 17]: 100%; Susceptible An. Gambiae (% dead (SE)) [5, 10]: 100%; Susceptible An. Gambiae (% dead (SE)) [5, 11]: 100%; Susceptible An. Gambiae (% dead (SE)) [5, 12]: 100%; Susceptible An. Gambiae (% dead (SE)) [5, 13]: 100%
